Source: patent publication US12492378B2, “Stepwise method of producing various types of cells from pluripotent stem cells” (Kyoto University, priority 2018, dated 2025)

Columns and labels:
[1] = tested on: DLL1+ presomitic mesoderm cells; experiment: Induction of somite cells (SM) from presomitic mesoderm cells; assay type: cell-based, human; details: for PAX3-GFP+ cells: four days culture, FACS
Procedure: IPS cells were cultured in SCDF condition of Example 1 for 4 days, and a total of 1.0×10^5 DLL1^+ presomitic mesoderm cells sorted by FACS were seeded onto one well of a matrigel-coated 12-well plate and subsequently underwent the induction of somite cells (FIG. 3A). The induction of somite cells was carried out for 4 days in CDM basal medium supplemented with SB431542 and/or 5 μM CHIR99021. The medium was changed at day 3 of the induction of somite cells. The expression of PAX3-GFP was used as a somite cell marker. The added factors and their concentrations are as follows: • S10: SB431542 10 μM • C1: CHIR99021 1 μM • C5: […]20: FGF2 20 ng/ml • […]: IWR1 10 μM

dermomyotome cells = experiment: Induction of myotome cells (MYO) from dermomyotome cells; assay type: cell-based, human; details: 5 μM CHIR99021, 30 days; number of MYOD- and MYOG-positive cells
Procedure: We next tried to induce myotome cells directly from dermomyotome cells obtained in the above (3). The medium of the dermomyotome cell culture obtained in (3) was replaced with CDM basal medium supplemented with 5 μM of CHIR99021, and the cell culture was further cultured. The medium was changed every 3 days, and the culture was performed for 30 days. A small amount of cultured cells was collected every 6 days, and the expression of myogenic markers MYOD, MYOG and PAX7 was examined over time. Induction of the myogenic markers was found 18 to 30 days after the replacement of the medium. On the other hand, the expression of the dermomyotome cell marker ALX4 was decreased in a time dependent manner (FIG. 4D). The expression of MYOD and MYOG was also determined by immunocytochemistry. The induction efficiency from dermomyotome cells into myotome cells was estimated at approximately 22% based on the number of MYOD- and MYOG-positive cells.

PAX3-GFP iPS cells = experiment: Induction of presomitic mesoderm cells (PSM) from human iPS cells, FACS for DLL1 and PAX3-GFP; assay type: cell-based; details: single factor, 10 μM CHIR99021, CDM basal medium, 4 days
Procedure: Fluorescence-activated cell sorting (FACS) was performed by AriaII (BD) according to the manufacturer's protocol. Intracellular flow cytometry analysis was also performed by AriaII (BD) according to the manufacturer's protocol. Briefly, cells were fixed and permeabilized prior to the antibody staining. The expression rate of each differentiation marker was calculated by comparing that of iPSCs or induced somite cells. To minimize the effect of growth factors secreted from feeder cells or contained in a culture medium, SNL feeders were removed from an iPS cell culture, and human iPS cells were seeded onto matrigel (BD, Bedford, MA, USA) coated dishes (1.3×10^6 cells/10-cm dish). The iPS cells were cultured under feeder-free condition with […]1 medium (STEMCELL Technology, Vancouver, Canada) for 3 days. The iPS cells were then cultured in CDM basal medium supplemented with one of four factors or the appropriate combination of the four factors for 4 days (FIG. 2B). The added factors are as follows. […] To detect the induction efficiency of presomitic mesoderm cells, the cell population positive for DLL1, a surface marker for a presomitic mesoderm cell and the posterior portion of somite, and negative for PAX3-GFP, showing a newly formed and segmented somite cell, were detected by FACS (FIG. 2C). […]

heterotopic ossification = details: reported, Hino et al., 2017; cited from earlier work
[2] = tested on: somite cell-derived mesenchymal stromal cells induced from FOP-iPS cells; experiment: 2D chondrogenic induction of FOP-iPS cell-derived mesenchymal stromal cells; assay type: cell-based, human; details: 5 days
Procedure: (§1) The GAG content in pellets was quantified with the Blyscan™ Glycosaminoglycan Assay Kit (Biocolor Ltd., Belfast, UK). The DNA content was quantified using the PicoGreen™ dsDNA Quantitation Kit (Invitrogen).
(§2) A total of 1.5×10^5 induced mesenchymal stromal cells or sclerotome cells were suspended in 5 μL of chondrogenic basal. medium (DMEM: F12 (Invitrogen), 1% (v/v) ITS+Premix (BD Biosciences, San Jose, CA, USA), 0.1 μM dexamethasone (WAKO), 0.17 mM L-Ascorbic acid 2-phosphate sesquimagnesium salt hydrate (Sigma), 0.35 mM Proline (Sigma), 0.15% (v/v) glucose (Sigma), 1 mM Na-pyruvate, 2 mM GlutaMax (Invitrogen) and 1% (v/v) FBS), and subsequently transferred to one well of a fibronectin-coated 24-well plate (BD Biosciences). After one hour of incubation at 37° C. in 5% CO2, cells formed micromass.
(§3) Then, the micromass was cultured in 1 ml of chondrogenic basal medium supplemented with 10 ng/ml BMP7 (R&D) and 10 ng/ml TGFβ3 (R&D) with or without 30 ng/ml Activin A (R&D) at 37° C. in 5% CO2 for 5 days.
The micromass induced from somite cell-derived mesenchymal stromal cells from FOP-iPS cells was also cultured in 1 mL of chondrogenic basal medium supplemented with 30 ng/ml Activin A (R&D) with/without 10 nM R667 (Toronto Research Chemicals, Toronto, ON, Canada) or 10 nM Rapamycin (MedChem Express, Monmouth Junction, NJ, USA).
(§4) Differentiation properties of obtained cells were analyzed by RT-qPCR analysis, glycosaminoglycans (GAG) quantification and Alcian Blue staining. Briefly, induced cells were fixed for 30 minutes with 4% paraformaldehyde (WAKO), rinsed with PBS, and then stained overnight with Alcian Blue solution (1% Alcian Blue, pH1) (MUTO PURE CHEMICAL CO., LTD, Tokyo, Japan).

[3] = tested on: somite cell-derived sclerotome cells; experiment: 2D chondrogenic induction of FOP-iPS cell-derived sclerotome cells; assay type: cell-based, human; details: 30 ng/ml Activin A, 5 days
Procedure: as §1, §2, §3, §4

Q: What does the source list for `Cc1c[nH]c(-c2cnc(NCCNc3ccc(C#N)cn3)nc2-c2ccc(Cl)cc2Cl)n1` [CHIR99021, 6-[2-[4-(2,4-Dichlorophenyl)-5-(4-methyl-1H-imidazol-2-yl)pyrimidin-2-ylamino]ethylamino]pyridine-3-carbonitrile]?
A: PAX3-GFP+ cells ([1]; 5 μM CHIR99021 (C5)): 70.7±0.1%; PAX3-GFP+ cells ([1]; 10 μM CHIR99021 (C10)): 0.3±0.0%; PARAXIS and MEOX1 expressions ([1]; S10C5 compared with S10I10 or S10, 4 days, RT-qPCR): highly induced; PARAXIS-expressing cells ([1]; immunohistochemistry using anti-PARAXIS (TCF15) antibody): found; induction efficiency from dermomyotome cells into myotome cells (dermomyotome cells): approximately 22%; DLL1+/PAX3-GFP- cells (induction efficiency) (PAX3-GFP iPS cells): 56.3±3.1%

Q: Which “inhibition of heterotopic ossification” value (heterotopic ossification) does the source give for `CC1(C)CCC(C)(C)c2cc(Cn3cccn3)c(/C=C/c3ccc(C(=O)O)cc3)cc21` [R667] here?
A: potent inhibitors

Q: And the “enhanced chondrogenesis by Alcian Blue staining” value ([2]; 10 nM, with 30 ng/ml Activin A)?
A: inhibition of the enhanced chondrogenesis was also confirmed

Q: And the “enhancement of glycosaminoglycan (GAG) production” value ([2]; 10 nM, with 30 ng/ml Activin A, GAG/DNA)?
A: significantly inhibited

Q: And the “enhancement of chondrogenic marker expressions” value ([2]; 10 nM, with 30 ng/ml Activin A, RT-qPCR)?
A: significantly inhibited

Q: For `NC(=O)c1ccc(-c2nc(-c3ccc4c(c3)OCO4)c(-c3ccccn3)[nH]2)cc1` [SB431542], which “PAX3-GFP+ cells” value ([1]; 10 μM SB431542 (S10)) is on record?
A: 52.1±0.8%

B1: Activin A: a stimulator of mutant ACVR1; R&D (protein, UniProt P08476 311-426, looked up)
Inhibin beta A chain: GLECDGKVNICCKKQFFVSFKDIGWNDWIIAPSGYHANYCEGECPSHIAGTSGSSLSFHSTVINHYRMRGHSPFANLKSCCVPTKLRPMSMLYYDDGQNIIKKDIQNMIVEECGCS
modifications: Inhibin beta A chain
notes: a stimulator of mutant ACVR1; R&D
Q: Which “chondrogenesis (chondrogenic markers, GAG production) in FOP-iPS-derived vs resFOP-iPS-derived cells” value ([2]; 30 ng/ml Activin A) does the source give for B1 here?
A: enhancement of the chondrogenesis was observed

Q: What about the “chondrogenic marker expressions, GAG production and Alcian Blue staining in FOP-iPS-derived vs resFOP-iPS-derived cells” value [3] of the same molecule?
A: no difference
